Patent publication US8088815B2, “Spiroindolinone pyrrolidines” (Hoffman-La Roche Inc., priority 2009, dated 2012)
pIC50: −log10 of the molar value.

target: interaction between p53 and MDM2 proteins (Homo sapiens, UniProt Q00987); assay: HTRF assay of inhibition of the p53-MDM2 interaction (GST-MDM2 / biotinylated p53 peptide); assay type: binding; details: recombinant GST-tagged MDM2 and biotinylated p53 peptide, bsa:0.02%
Procedure: The ability of the compounds to inhibit the interaction between p53 and MDM2 proteins was measured by an HTRF (homogeneous time-resolved fluorescence) assay in which recombinant GST-tagged MDM2 binds to a peptide that resembles the MDM2-interacting region of p53. Binding of GST-MDM2 protein and p53-peptide (biotinylated on its N-terminal end) is registered by the FRET (fluorescence resonance energy transfer) between Europium (Eu)-labeled anti-GST antibody and streptavidin-conjugated Allophycocyanin (APC).
Add 10 uL diluted compounds (1:5 dilution in reaction buffer) to each well, mix by shaking. Add 20 uL biotinylated p53 peptide (180 nM working solution) in reaction buffer to each well and mix on shaker. Incubate at 37° C. for 1 h. Add 20 uL streptavidin-APC and Eu-anti-GST antibody mixture (6 nM Eu-anti-GST and 60 nM streptavidin-APC working solution) in TBS buffer with 0.2% BSA, shake at room temperature for 30 minutes and read using a TRF-capable plate reader at
665 and 615 nm (Victor 5, Perkin ElmerWallac). If not specified, the reagents were purchased from Sigma Chemical Co.

Chain of interaction between p53 and MDM2 proteins (Q00987 whole entry): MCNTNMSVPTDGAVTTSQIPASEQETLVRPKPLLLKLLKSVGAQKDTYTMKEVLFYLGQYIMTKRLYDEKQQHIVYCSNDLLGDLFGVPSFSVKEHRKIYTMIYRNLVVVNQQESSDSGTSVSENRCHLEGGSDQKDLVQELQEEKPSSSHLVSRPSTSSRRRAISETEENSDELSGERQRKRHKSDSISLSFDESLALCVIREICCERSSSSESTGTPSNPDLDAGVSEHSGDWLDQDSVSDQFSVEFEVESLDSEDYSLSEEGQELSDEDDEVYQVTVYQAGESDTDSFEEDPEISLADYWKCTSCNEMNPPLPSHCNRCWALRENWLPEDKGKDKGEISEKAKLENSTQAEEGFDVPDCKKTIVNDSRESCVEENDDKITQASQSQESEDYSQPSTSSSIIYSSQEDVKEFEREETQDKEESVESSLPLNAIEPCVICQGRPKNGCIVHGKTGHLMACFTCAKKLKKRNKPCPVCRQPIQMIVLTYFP

Row | pIC50 | Structure (SMILES)
1 | 7.96 | COc1cc(C(N)=O)ccc1NC(=O)[C@@H]1N[C@@H](CC(C)(C)C)[C@@]2(C(=O)Nc3cc(Cl)cc(F)c32)[C@H]1c1cccc(Cl)c1F (racemic) [Example 76, rac-(2′S,3′R,4′S,5′R)-6-chloro-4′-(3-chloro-2-fluoro-phenyl)-2′-(2,2-dimethyl-propyl)-4-fluoro-2-oxo-1,2-dihydro-spiro[indole-3,3′-pyrrolidine]-5′-carboxylic acid (4-carbamoyl-2-methoxy-phenyl)-amide]
2 | 7.89 | CC(C)(C)C[C@@H]1N[C@@H](C(=O)Nc2ccc(C(N)=O)cc2F)[C@H](c2cccc(Cl)c2F)[C@]12C(=O)Nc1cc(Cl)cc(F)c12 (racemic) [Example 79, rac-(2′S,3′R,4′S,5′R)-6-chloro-4′-(3-chloro-2-fluoro-phenyl)-2′-(2,2-dimethyl-propyl)-4-fluoro-2-oxo-1,2-dihydro-spiro[indole-3,3′-pyrrolidine]-5′-carboxylic acid (4-carbamoyl-2-fluoro-phenyl)-amide]
3 | 7.47 | CC(C)(C)C[C@@H]1N[C@@H](C(=O)Nc2ccc(C#N)cc2)[C@H](c2ccc(F)c(Cl)c2)[C@]12C(=O)Nc1cc(Cl)ccc12 (racemic) [Example 83, rac-(2′S,3′R,4′R,5′R)-6-chloro-4′-(3-chloro-4-fluoro-phenyl)-2′-(2,2-dimethyl-propyl)-2-oxo-1,2-dihydro-spiro[indole-3,3′-pyrrolidine]-5′-carboxylic acid (4-cyano-phenyl)-amide]
4 | 7.82 | CC(C)(C)C[C@@H]1N[C@@H](C(=O)Nc2ccc(C(N)=O)cc2)[C@H](c2ccc(F)c(Cl)c2)[C@]12C(=O)Nc1cc(Cl)ccc12 (racemic) [Example 84, rac-(2′S,3′R,4′R,5′R)-6-chloro-4′-(3-chloro-4-fluoro-phenyl)-2′-(2,2-dimethyl-propyl)-2-oxo-1,2-dihydro-spiro[indole-3,3′-pyrrolidine]-5′-carboxylic acid (4-carbamoyl-phenyl)-amide]
5 | 7.89 | CC(C)(C)C[C@@H]1N[C@@H](C(=O)Nc2ccc(C#N)cc2)[C@H](c2cc(F)cc(Cl)c2)[C@]12C(=O)Nc1cc(Cl)ccc12 (racemic) [Example 88, rac-(2′S,3′R,4′R,5′R)-6-chloro-4′-(3-chloro-5-fluoro-phenyl)-2′-(2,2-dimethyl-propyl)-2-oxo-1,2-dihydro-spiro[indole-3,3′-pyrrolidine]-5′-carboxylic acid (4-cyano-phenyl)-amide]
6 | 7.89 | CC(C)(C)C[C@@H]1N[C@@H](C(=O)Nc2ccc(C(N)=O)cc2)[C@H](c2cc(F)cc(Cl)c2)[C@]12C(=O)Nc1cc(Cl)ccc12 (racemic) [Example 89]
7 | 7.92 | CC(C)(C)C[C@@H]1N[C@@H](C(=O)Nc2ccc(C(N)=O)cc2)[C@H](c2cccc(Cl)c2F)[C@]12C(=O)Nc1cc(Br)ccc12 (racemic) [Example 94, rac-(2′S,3′R,4′S,5′R)-6-bromo-4′-(3-chloro-2-fluoro-phenyl)-2′-(2,2-dimethyl-propyl)-2-oxo-1,2-dihydro-spiro[indole-3,3′-pyrrolidine]-5′-carboxylic acid (4-carbamoyl-phenyl)-amide]
8 | 7.74 | CC(C)(C)C[C@@H]1N[C@@H](C(=O)Nc2ccc(C#N)cc2)[C@H](c2cccc(Br)c2F)[C@]12C(=O)Nc1cc(Cl)ccc12 (racemic) [Example 98, rac-(2′S,3′R,4′S,5′R)-4′-(3-bromo-2-fluoro-phenyl)-6-chloro-2′-(2,2-dimethyl-propyl)-2-oxo-1,2-dihydro-spiro[indole-3,3′-pyrrolidine]-5′-carboxylic acid (4-cyano-phenyl)-amide]
9 | 7.74 | CC(C)(C)C[C@@H]1N[C@@H](C(=O)Nc2ccc(C(N)=O)cc2)[C@H](c2cccc(Br)c2F)[C@]12C(=O)Nc1cc(Cl)ccc12 (racemic) [Example 99, rac-(2′S,3′R,4′S,5′R)-4′-(3-bromo-2-fluoro-phenyl)-6-chloro-2′-(2,2-dimethyl-propyl)-2-oxo-1,2-dihydro-spiro[indole-3,3′-pyrrolidine]-5′-carboxylic acid (4-carbamoyl-phenyl)-amide]
10 | 7.92 | CC(=O)OCC(C)(C)C[C@@H]1N[C@@H](C(=O)Nc2ccc(C#N)cc2)[C@H](c2cccc(Cl)c2F)[C@]12C(=O)Nc1cc(Cl)ccc12 (racemic) [Example 104, acetic acid rac-3-[(2′S,3′R,4′S,5′R)-6-chloro-4′-(3-chloro-2-fluoro-phenyl)-5′-(4-cyano-phenylcarbamoyl)-2-oxo-1,2-dihydro-spiro[indole-3,3′-pyrrolidin]-2′-yl]-2,2-dimethyl-propyl ester]
11 | 7.89 | CC(C)(CO)C[C@@H]1N[C@@H](C(=O)Nc2ccc(C#N)cc2)[C@H](c2cccc(Cl)c2F)[C@]12C(=O)Nc1cc(Cl)ccc12 (racemic) [Example 105, rac-(2′S,3′R,4′S,5′R)-6-chloro-4′-(3-chloro-2-fluoro-phenyl)-2′-(3-hydroxy-2,2-dimethyl-propyl)-2-oxo-1,2-dihydro-spiro[indole-3,3′-pyrrolidine]-5′-carboxylic acid (4-cyano-phenyl)-amide]
12 | 8.05 | CC(C)(CO)C[C@@H]1N[C@@H](C(=O)Nc2ccc(C(N)=O)cc2)[C@H](c2cccc(Cl)c2F)[C@]12C(=O)Nc1cc(Cl)ccc12 (racemic) [Example 106, rac-(2′S,3′R,4′S,5′R)-6-chloro-4′-(3-chloro-2-fluoro-phenyl)-2′-(3-hydroxy-2,2-dimethyl-propyl)-2-oxo-1,2-dihydro-spiro[indole-3,3′-pyrrolidine]-5′-carboxylic acid (4-carbamoyl-phenyl)-amide]
13 | 7.77 | COC(=O)c1ccc(NC(=O)[C@@H]2N[C@@H](CC(C)(C)C)[C@@]3(C(=O)Nc4cc(Cl)ccc43)[C@H]2c2cccc(Cl)c2)c(OC)c1 (racemic) [Example 107, rac-4-{[(2′S,3′R,4′R,5′R)-6-chloro-4′-(3-chloro-phenyl)-2′-(2,2-dimethyl-propyl)-2-oxo-1,2-dihydro-spiro[indole-3,3′-pyrrolidine]-5′-carbonyl]-amino}-3-methoxy-benzoic acid methyl ester]
14 | 8.05 | COc1cc(C(=O)O)ccc1NC(=O)[C@@H]1N[C@@H](CC(C)(C)C)[C@@]2(C(=O)Nc3cc(Cl)ccc32)[C@H]1c1cccc(Cl)c1 (racemic) [Example 108, rac-4-{[(2′S,3′R,4′R,5′R)-6-chloro-4′-(3-chloro-phenyl)-2′-(2,2-dimethyl-propyl)-2-oxo-1,2-dihydro-spiro[indole-3,3′-pyrrolidine]-5′-carbonyl]amino}-3-methoxy-benzoic acid]
15 | 7.96 | COC(=O)c1ccc(NC(=O)[C@@H]2N[C@@H](CC(C)(C)C)[C@@]3(C(=O)Nc4cc(Cl)ccc43)[C@H]2c2cccc(Cl)c2F)c(OC)c1 (racemic) [Example 109, rac-4-{[(2′S,3′R,4′S,5′R)-6-chloro-4′-(3-chloro-2-fluoro-phenyl)-2′-(2,2-dimethyl-propyl)-2-oxo-1,2-dihydro-spiro[indole-3,3′-pyrrolidine]-5′-carbonyl]amino}-3-methoxy-benzoic acid methyl ester]
16 | 7.96 | COc1cc(C(=O)O)ccc1NC(=O)[C@@H]1N[C@@H](CC(C)(C)C)[C@@]2(C(=O)Nc3cc(Cl)ccc32)[C@H]1c1cccc(Cl)c1F (racemic) [Example 110, rac-4-{[(2′S,3′R,4′S,5′R)-6-chloro-4′-(3-chloro-2-fluoro-phenyl)-2′-(2,2-dimethyl-propyl)-2-oxo-1,2-dihydro-spiro[indole-3,3′-pyrrolidine]-5′-carbonyl]-amino}-3-methoxy-benzoic acid]
17 | 7.82 | COc1cc(C#N)ccc1NC(=O)[C@@H]1N[C@@H](CC(C)(C)C)[C@@]2(C(=O)Nc3cc(Cl)c(F)cc32)[C@H]1c1cccc(Cl)c1F (racemic) [Example 112, rac-(2′S,3′R,4′S,5′R)-6-chloro-4′-(3-chloro-2-fluoro-phenyl)-2′-(2,2-dimethyl-propyl)-5-fluoro-2-oxo-1,2-dihydro-spiro[indole-3,3′-pyrrolidine]-5′-carboxylic acid (4-cyano-2-methoxy-phenyl)-amide]
18 | 8.05 | COc1cc(C(N)=O)ccc1NC(=O)[C@@H]1N[C@@H](CC(C)(C)C)[C@@]2(C(=O)Nc3cc(Cl)c(F)cc32)[C@H]1c1cccc(Cl)c1F (racemic) [Example 113, rac-(2′S,3′R,4′S,5′R)-6-chloro-4′-(3-chloro-2-fluoro-phenyl)-2′-(2,2-dimethyl-propyl)-5-fluoro-2-oxo-1,2-dihydro-spiro[indole-3,3′-pyrrolidine]-5′-carboxylic acid (4-carbamoyl-2-methoxy-phenyl)-amide]
19 | 7.92 | COc1cc(C#N)ccc1NC(=O)[C@@H]1N[C@@H](CC(C)(C)C)[C@@]2(C(=O)Nc3cc(Cl)ccc32)[C@H]1c1cc(F)cc(Cl)c1 (racemic) [Example 114, rac-(2′S,3′R,4′R,5′R)-6-chloro-4′-(3-chloro-5-fluoro-phenyl)-2′-(2,2-dimethyl-propyl)-2-oxo-1,2-dihydro-spiro[indole-3,3′-pyrrolidine]-5′-carboxylic acid (4-cyano-2-methoxy-phenyl)-amide]
20 | 8.22 | COc1cc(C(N)=O)ccc1NC(=O)[C@@H]1N[C@@H](CC(C)(C)C)[C@@]2(C(=O)Nc3cc(Cl)ccc32)[C@H]1c1cc(F)cc(Cl)c1 (racemic) [Example 115, rac-(2′S,3′R,4′R,5′R)-6-chloro-4′-(3-chloro-5-fluoro-phenyl)-2′-(2,2-dimethyl-propyl)-2-oxo-1,2-dihydro-spiro[indole-3,3′-pyrrolidine]-5′-carboxylic acid (4-carbamoyl-2-methoxy-phenyl)-amide]
